Patent US20060135443A1, “Use of Na*/K*-ATPase inhibitors and antagonists thereof” (Bionaut Pharmaceuticals, Inc., priority 2004, published 2006)
“Also recorded” adds a separate entry of the source.

What was measured:
[1] = test system: Caki-1 human renal cancer xenograft; assay: Caki-1 human renal cancer xenograft; assay type: in vivo, nude mice; conditions: for Final Tumor weight Day 22 (Mean): BNC1 20 mg/ml s.c. pump 0.5 μl/hr, n=10; for Final Tumor weight Day 22 (Mean) / % TGI: Cytoxan 100 or 300 ip; for % TGI: Day 22, BNC1 20 mg/ml s.c. C.I.
Experimental: (§1) Female nude mice (nu/nu) between 5 and 6 weeks of age weighing approximately 20 g were implanted subcutaneously (s.c.) by trocar with fragments of human tumors harvested from s.c. grown tumors in nude mice hosts. When the tumors were approximately 60-75 mg in size (about 10-15 days following inoculation), the animals were pair-matched into treatment and control groups. Each group contains 8-10 mice, each of which was ear tagged and followed throughout the experiment.
(§2) The administration of drugs or controls began the day the animals were pair-matched (Day 1). Pumps (Alzet® Model 2002) with a flow rate of 0.5 μl/hr were implanted s.c. between the shoulder blades of each mice. Mice were weighed and tumor measurements were obtained using calipers twice weekly, starting Day 1. These tumor measurements were converted to mg tumor weight by standard formula, (W^2×L)/2. The experiment is terminated when the control group tumor size reached an average of about 1 gram. Upon termination, the mice were weighed, sacrificed and their tumors excised. The tumors were weighed and the mean tumor weight per group was calculated.
Cytoxan (q1d×1) was injected at 100 mg/kg (Cyt 100) or 300 mg/kg (Cyt 300).

[2] = test system: A549 (NSCLC) Sentinel Line; assay: Sentinel Line reporter assay (FACS, FDG); assay type: cell-based, human; conditions: 40 hrs; for reporter activity / cell death: agent alone; for reporter activity: mitoxantrone 8 nM, paclitaxel 1.5 nM, carboplatin 15 μM, gemcitabine 2.5 nM, Iressa 4 μM; for cell death: Sentinel Lines
Experimental: The expression level of beta-galactosidase gene in sentinel lines was determined by using a fluorescent substrate fluorescein di-B-D-Galactopyranside (FDG, Marker Gene Tech, #M0250) introduced into cells by hypotonic shock. Cleavage by beta-galactosidase results in the production of free fluorescein, which is unable to cross the plasma membrane and is trapped inside the beta-gal positive cells. Briefly, the cells to be analyzed are trypsinized, and resuspended in PBS containing 2 mM FDG (diluted from a 10 mM stock prepared in 8:1:1 mixture of water: ethanol: DMSO). The cells were then shocked for 4 minutes at 37° C. and transferred to FACS tubes containing cold 1×PBS on ice. Samples were kept on ice for 30 minutes and analyzed by FACS in FL1 channel.
Sentinel Line cells with beta-galactosidase reporter gene were plated at 1×10^5 cells/10 cm dish. […] After 40 hrs, the cells were trypsinized and the expression level of reporter gene was determined by FDG loading.
In experiments of FIG. 10, the A549 sentinel line was incubated with Gemcitabine in the presence or absence of indicated Bionaut compounds (including the cardiac glycoside compound BNC4) for 40 hrs. The reporter activity was measured by FACS analysis.

[3] = test system: Panc-1 human pancreatic tumors; assay: Panc-1 human pancreatic tumor xenograft; assay type: in vivo, nude mice; conditions: Gemcitabine 40 mg/kg q3d×4; for Final Tumor weight Day 25 (Mean): BNC1 20 mg/ml s.c. osmotic pump 0.5 μl/hr, n=8; for % TGI: Day 25, BNC1 20 mg/ml s.c. C.I.
Experimental: as §1, §2
The control animals received pumps containing vehicle (50% DMSO in DMEM). The mice treated with standard chemotherapy agent received intra-peritoneal injections of Gemcitabine at 40 mg/kg every 3 days for 4 treatments (q3d×4). Each data point represent average tumor weight (n=8) and error bars indicate SEM.
Gem was also included in the experiment as a comparison.

VEGF = VEGF secretion in tumor cells; assay type: cell-based
[4] = cited from earlier work; for max. plasma concentration: in vivo
[5] = test system: A549(ROS) tumor cell line; assay: ROS levels by FACS; assay type: cell-based, human; conditions: normoxia, 4 hrs
Experimental: (§3) Thirty minutes prior to the termination of incubation period, 2,7-dichlorofluorescin diacetate (CFH-DA, […]) was added to the cells and incubated for the last 30 min at 37° C. The ROS levels were determined by FACS analysis.

[6] = target: Na^+/K^+-ATPase α peptide isoforms; conditions: four α peptide isoforms, almost all mammalian species; cited from earlier work
cancer cell lines = assay: proliferation of cancer cell lines; assay type: cell-based; conditions: for decrease of concentration effective for inhibiting proliferation of cancer cells: in combination with a steroid signal modulator (Casodex)
Source text: The concentration at which a cardiac glycoside is effective as part of an antiproliferative treatment may be further decreased by combination with an additional agent that negatively regulates HIF-responsive genes, such as a redox effector or a steroid signal modulator. […] Therefore, in certain embodiments, the invention provides combination therapies of cardiac glycosides with, for example, steroid signal modulators and/or redox effectors. Additionally, cardiac glycosides may be combined with radiation therapy, taking advantage of the radiosensitizing effect that many cardiac glycosides have.

[7] = test system: A549 human non-small-cell-lung carcinoma; assay: A549 human non-small-cell-lung carcinoma xenograft; assay type: in vivo, nude mice; conditions: for animals with tumor at the end of the experiment: 8 animals per group; for % Weight Change at Day 38 / Final Tumor weight Day 38 (Mean) / % TGI: Carboplatin 100 mg/kg ip qd×1; for % Weight Change at Day 38 / Final Tumor weight Day 38 (Mean): n=8; for % TGI: Day 38, BNC1 20 mg/ml s.c. C.I.
Experimental: as §1, §2
Carboplatin (q1d×1) was injected at 100 mg/kg (Carb).

[8] = test system: other receptors involved in blood pressure regulation or hormonal control; conditions: Ferrari et al. 1998; cited from earlier work
[9] = target: purified sodium, potassium ATPase enzyme (Na-K ATPase); conditions: read-out: IC50, displaced ouabain from its binding sites; Ferrari et al. 1998; cited from earlier work
HIF-1α [10] = assay: HIF-1α induced under normoxia by PHD inhibitor L-mimosone, Western blot; assay type: cell-based, human; conditions: Hep3B cells, 200 μM L-mimosone, 18 h
Experimental: Abundance of HIF1α and β-actin was determined by western blotting.

HIF-1α [11] = assay: HIF-1α Western blot in tumor cells; assay type: cell-based, human; conditions: Hep3B, Caki-1 or Panc-1 cells under hypoxia
Experimental: For HIF1-alpha Western blots, Hep3B cells were seeded in growth medium at a density of 7×10^6 cells per 100 mm dish. […] Samples were fractionated on 3-8% Tris-Acetate gel (Invitrogen NUPAGE system) by sodium dodecyl sulfate (SDS)-polyacrylamide gel electropherosis and transferred onto nitrocellulose membrane. […] Anti-Beta-actin monoclonal antibody (Abcam, ab6276-100) was used at a 1:5000 dilution with a 30-minute incubation at room temperature.
The cells were lysed and proteins were resolved by SDS-PAGE and transferred to a nylon membrane.
as §3

O=P1(N(CCCl)CCCl)NCCCO1 (centres unmarked) [Cytoxan]
Final Tumor weight Day 22 (Mean) [1]: 769 mg
Final Tumor weight Day 22 (Mean) ([1]; listed as Cytoxan300): 93.7 mg
% TGI [1]: 54.70%
% TGI ([1]; listed as Cytoxan300): 94.48%

Nc1ccn([C@@H]2O[C@H](CO)[C@@H](O)C2(F)F)c(=O)n1 [Gemcitabine]
reporter activity [2]: elevated reporter activity
Final Tumor weight Day 25 (Mean) [3]: 701.3 mg
% TGI [3]: 37.40%

COc1cc2ncnc(Nc3ccc(F)c(Cl)c3)c2cc1OCCCN1CCOCC1 [Iressa]
reporter activity [2]: reduction

C[C@@H]1O[C@@H](O[C@H]2C[C@@H](O)[C@]3(CO)[C@H]4[C@H](O)C[C@]5(C)[C@@H](C6=CC(=O)OC6)CC[C@]5(O)[C@@H]4CC[C@]3(O)C2)[C@H](O)[C@H](O)[C@H]1O [BNC1, ouabain]
secretion of the angiogenesis factor VEGF (VEGF): inhibits
Final Tumor weight Day 22 (Mean) [1]: 314.9 mg
anti-tumor activity (in words) ([1]; BNC1 20 mg/ml s.c. pump, Cytoxan 100 or 300 mg/kg): potent anti-tumor agent when used alone
% TGI [1]: 81.45%
max. plasma concentration [4]: about 0.03 μg/mL
ROS production [5]: induces ROS production
Kd [6]: ≤ 1 nM
Final Tumor weight Day 25 (Mean) [3]: 200 mg
tumor growth (in words) ([3]; BNC1 20 mg/ml s.c. pump): significantly reduce tumor growth
% TGI [3]: 82.15%
decrease of concentration effective for inhibiting proliferation of cancer cells (cancer cell lines): 5 fold
animals with tumor at the end of the experiment [7]: none of the experimental animals showed any signs of tumor
anti-tumor activity (in words) ([7]; BNC1 20 mg/ml s.c. pump, Carboplatin 100 mg/kg): potent anti-tumor activity
% Weight Change at Day 38 ([7]; BNC1 20 mg/ml s.c. pump): 21%
Final Tumor weight Day 38 (Mean) ([7]; BNC1 20 mg/ml s.c. pump): 0.0 mg
% TGI [7]: 100.00%

CC12CCC(O)CC1CCC1C2CCC2(C)C(O)(c3ccoc3)CCC12O (stereo not drawn) [PST 2238, 17beta-(3-furyl)-5beta-androstane-3beta, 14beta, 17alpha-triol]
interaction with other receptors [8]: without interacting
IC50 [9]: 1700 nM

CC(=O)O[C@H]1C(=O)[C@@]2(C)[C@H]([C@H](OC(=O)c3ccccc3)[C@]3(O)C[C@H](OC(=O)[C@H](O)[C@@H](NC(=O)c4ccccc4)c4ccccc4)C(C)=C1C3(C)C)[C@]1(OC(C)=O)CO[C@@H]1C[C@@H]2O [paclitaxel]
cell death [2]: increases
reporter activity [2]: increases

C[C@@H]1O[C@@H](O[C@@H]2C=C3CC[C@@H]4[C@H](CC[C@]5(C)[C@@H](c6ccc(=O)oc6)CC[C@]45O)[C@@]3(C)CC2)[C@H](O)[C@H](O)[C@H]1O [BNC4, proscillaridin]
secretion of the angiogenesis factor VEGF (VEGF): inhibits
plasma half-life in human ([4]; according to the literature): about 40 hours
max. plasma concentration [4]: about 0.001 μg/mL
HIF-1α accumulation induced by L-mimosone (HIF-1α [10]): blocks HIF-1α induction; also recorded: eliminated HIF-1α accumulation
potency in inhibiting HIF-1α expression relative to BNC1 (HIF-1α [11]): about 10 times
Gemcitabine-induced stress response (reporter activity) ([2]; incubated with Gemcitabine plus compound): significantly shift the reporter activity to the left
decrease of concentration effective for inhibiting proliferation of cancer cells (cancer cell lines): 5 fold
IC50 (cancer cell lines; test system not named at the place, read-out: predicted IC50): 2 to 8 ng/mL

N.N.O=C([O-])C1(C(=O)[O-])CCC1.[Pt+2] [Carboplatin]
cell death [2]: increases
reporter activity [2]: increases
animals with tumor at the end of the experiment [7]: all 8
% Weight Change at Day 38 ([7]; BNC1 20 mg/ml s.c. pump): 16%
Final Tumor weight Day 38 (Mean) ([7]; BNC1 20 mg/ml s.c. pump): 509.75 mg
% TGI [7]: 39.50%

O=C1c2c(O)ccc(O)c2C(=O)c2c(NCCNCCO)ccc(NCCNCCO)c21 [mitoxanthrone, mitoxantrone]
cell death [2]: increases
reporter activity [2]: increases
